Laboratory results from US6455533B1, “Pharmaceutical compositions for oral administration, comprising an active substance and a cyclodextrin” (UCB, S.A., priority 1997, dated 2002).
Structures can show the parent of a compound that is named as a salt.

Columns and labels:
[1] = Competition for the complexation with colored indicators; assay type: physicochemical; conditions: complex with β-cyclodextrin
From the text: In this case, the cetirizine comes into competition with the colored indicator for the formation of an inclusion complex. The changes in the visible-range spectrum thus make it possible to determine whether or not cetirizine forms an inclusion complex with cyclodextrin. Two acid-base indicators were used; crystal violet and methyl orange. In the case of the acid-base indicators, the changes in the absorption spectrum due to complexation with a cyclodextrin are often large given that the complexation brings about a change in the pK of the indicator. If the pH of the solution is close to the pK, the addition of a cyclodextrin to an acid-base indicator solution brings about ionization or deionization of the indicator, which is reflected by a change in the color of the solution. Consequently, the absorption maximum in the visible spectrum is displaced as a function of the degree of complexation. […] (J.

[2] = pH 3.4
Procedure: Two solutions A and B were prepared. […] These two solutions were stirred at room temperature until thermodynamic equilibrium was reached.

association constant (average value) ([1]; competition with crystal violet) | association constant (average value) ([1]; competition with methyl orange) | increase of solubility (factor) [2] | Compound
3292 mol⁻¹ | 3587 mol⁻¹ | – | O=C(O)COCCN1CCN(C(c2ccccc2)c2ccc(Cl)cc2)CC1 (stereo not drawn) [cetirizine dihydrochloride, 2-[2-[4-[(4-chlorophenyl)phenylmethyl]-1-piperazinyl]ethoxy]acetic acid]
– | – | at least 30 | OC[C@H]1O[C@@H]2O[C@H]3[C@H](O)[C@@H](O)[C@@H](O[C@H]4[C@H](O)[C@@H](O)[C@@H](O[C@H]5[C@H](O)[C@@H](O)[C@@H](O[C@H]6[C@H](O)[C@@H](O)[C@@H](O[C@H]7[C@H](O)[C@@H](O)[C@@H](O[C@H]8[C@H](O)[C@@H](O)[C@@H](O[C@H]1[C@H](O)[C@H]2O)O[C@@H]8CO)O[C@@H]7CO)O[C@@H]6CO)O[C@@H]5CO)O[C@@H]4CO)O[C@@H]3CO [β-cyclodextrin]
